Results published in patent US3983125A, “Thieno-pyridine derivatives, process for their preparation and their applications” (Parcor, priority 1974, dated 1976).

Legend:
[1] = Carrageenin-induced localized edema method; assay type: in vivo; conditions: rat, 100 mg/kg orally per administration; for Percent anti-inflammatory activity after 1 hour: 1 hour after carrageenin; for Percent anti-inflammatory activity after 2 hours: 2 hours after carrageenin; for Percent anti-inflammatory activity after 5 hours: 5 hours after carrageenin
Description: a. Carrageenin-induced localized edema method
A 1% carrageenin solution (0.1 ml) is injected in the metatarsal flexor muscles of the right posterior limb of a rat at time 0 (zero). The animals of the treated lot are additionally given orally 100 mg/kg of the respective test derivatives, one hour prior to and then simultaneously with the injection of the phlogogenic agent, and then one hour and 2.5 hours thereafter. The determinations effected by means of a ROCH micrometer at times 0, 1 hour, 2 hours, 3 hours and 5 hours after carrageenin administration, provide a measure of the percent anti-inflammatory activity, as a function of time.

[2] = Acetic acid method (writhing), according to Koster, Anderson and de Beer; assay type: in vivo; conditions: mice, 100 mg/kg orally, 30 minutes prior to acetic acid i.p.; writhing within following 30 minutes
Description: a. Acetic acid method, according to Koster, Anderson and de Beer (Fed. Proced., 18, 1959, 412, 1, 626).
Intraperitoneal injection of a dilute acetic acid solution produces, in mice, characteristic repeated writhing movements, under the influence of pain.

[3] = Acute toxicity, LD50 intravenous route, Miller and Tainter method; conditions: mouse, in vivo, mice, per kg body weight
[4] = Mechanical stimulation method according to Haffner; assay type: in vivo; conditions: mouse, 100 mg/kg orally
Description: b. Mechanical stimulation method according to Haffner (Deutsch. Wisch., 1959, 55, 731-733)
This method comprises placing a forcipressure forceps at the base of the tail of a mouse and noting the number of self-inflicted bites due to the animal's efforts to remove the forceps. The decrease of the number of bites prior to and after oral administration of the test derivative, at a dosage of 100 mg/kg, provides a measure of the antalgic activity of the derivatives of this invention.

[5] = Ovalbumin-induced systemic edema method; assay type: in vivo; conditions: rat, 100 mg/kg orally, one hour prior to and simultaneously with ovalbumin; for Percent decrease (edematous reaction) after two hours: 2 hours; for Percent decrease (edematous reaction) after three hours: 3 hours
Description: b. Ovalbumin-induced systemic edema method
Rats are administered a simultaneous intraperitoneal injection of 1 ml ovalbumin and 0.5 ml of a 1% aqueous Evans Blue solution. On the other hand, the animals of the treated lot are administered orally 100 mg/kg of the test derivative, one hour prior to and simultaneously with the ovalbumin administration. The determinations are effected after 2 hours and after 3 hours. Thus are determined the average intensity of the edema and the percent decrease of the edematous reaction with respect to the controls.

[6] = Acute toxicity, LD50 oral route; conditions: mouse, in vivo, per kg body weight
Description: By the oral route, the LD50 /24 hrs/kg body weight is in excess of 300 mg with derivatives n°1 and n°2.

| SMILES | Percent anti-inflammatory activity after 1 hour [1] | Percent anti-inflammatory activity after 2 hours [1] | Percent anti-inflammatory activity after 5 hours [1] | Percent antalgic activity [2] | LD50 at 24 h [3] | Average percent antalgic activity after 30 min. [4] | Average percent antalgic activity after 1 hr [4] | Average percent antalgic activity after 2 hrs [4] | Average percent antalgic activity after 3 hrs [4] | Percent decrease (edematous reaction) after two hours [5] | Percent decrease (edematous reaction) after three hours [5] | LD50 at 24 h [6] |
| --- | --- | --- | --- | --- | --- | --- | --- | --- | --- | --- | --- | --- |
| CCC1NCC(O)c2sccc21 (centres unmarked) [Derivative 6, 4-ethyl-7-hydroxy-4,5,6,7-tetrahydro-thieno[3,2-c]pyridine] | 39% | 51% | 57% | 58% | 210 mg/kg | 71% | 67% | 63% | 58% | 49% | 64% | – |
| OC1CNCc2sccc21 (centres unmarked) [Derivative 2, 4-hydroxy-4,5,6,7-tetrahydro-thieno[2,3-c]pyridine] | 43% | 54% | 58% | 66% | 68 mg/kg | 76% | 69% | 60% | 54% | 56% | 65% | > 300 mg/kg |
| OC1CNCc2ccsc21 (centres unmarked) [Derivative 1, 7-hydroxy-4,5,6,7-tetrahydro-thieno[3,2-c]pyridine] | 41% | 48% | 53% | 63% | 75 mg/kg | 72% | 68% | 62% | 55% | 54% | 58% | > 300 mg/kg |
| CCC1NCC(O)c2ccsc21 (centres unmarked) [Derivative 4, 7-ethyl-4-hydroxy-4,5,6,7-tetrahydro-thieno[2,3-c]pyridine] | 43% | 51% | 59% | 61% | 285 mg/kg | 74% | 65% | 60% | 52% | 54% | 62% | – |
| CC1NCC(O)c2sccc21 (centres unmarked) [Derivative 5, 7-hydroxy-4-methyl-4,5,6,7-tetrahydro-thieno[3,2-c]pyridine] | 41% | 55% | 60% | 59% | 155 mg/kg | 76% | 64% | 61% | 52% | 52% | 64% | – |
| CC1NCC(O)c2ccsc21 (centres unmarked) [Derivative 3, 4-hydroxy-7-methyl-4,5,6,7-tetrahydro-thieno[2,3-c]pyridine] | 38% | 47% | 56% | 55% | 300 mg/kg | 68% | 62% | 58% | 50% | 45% | 56% | – |
